Source: ChEMBL document CHEMBL1153550, “In vitro study of Candida tropicalis isolates exhibiting paradoxical growth in the presence of high concentrations of caspofungin” (2007)
Converted amounts (≈) assume the structure as drawn.

How the values were obtained:
Format in all cases: functional
Candida tropicalis [1] = test: Antifungal activity against Candida tropicalis isolate 4 in RPMI 1640 medium by broth dilution susceptibility test
Candida tropicalis [2] = test: Antifungal activity against Candida tropicalis isolate 5 in RPMI 1640 medium by broth dilution susceptibility test
Candida tropicalis [3] = test: Antifungal activity against Candida tropicalis isolate 6 in RPMI 1640 medium by broth dilution susceptibility test
Candida tropicalis [4] = test: Antifungal activity against Candida tropicalis isolate 7 in RPMI 1640 medium by broth dilution susceptibility test
Candida tropicalis [5] = test: Antifungal activity against Candida tropicalis isolate 8 in RPMI 1640 medium by broth dilution susceptibility test
Candida tropicalis [6] = test: Antifungal activity against Candida tropicalis isolate 13 in RPMI 1640 medium by broth dilution susceptibility test
Candida tropicalis [7] = test: Antifungal activity against Candida tropicalis isolate 15 in RPMI 1640 medium by broth dilution susceptibility test
Candida tropicalis [8] = test: Antifungal activity against Candida tropicalis ATCC 750 in RPMI 1640 medium by broth dilution susceptibility test

SMILES	MIC (Candida tropicalis [1]) [µg/mL]	MIC (Candida tropicalis [2]) [µg/mL]	MIC (Candida tropicalis [3]) [µg/mL]	MIC (Candida tropicalis [4]) [µg/mL]	MIC (Candida tropicalis [5]) [µg/mL]	MIC (Candida tropicalis [6]) [µg/mL]	MIC (Candida tropicalis [7]) [µg/mL]	MIC (Candida tropicalis [8]) [µg/mL]
C[C@@H]1[C@H](O)[C@@H](C)/C=C/C=C/C=C/C=C/C=C/C=C/C=C/[C@H](O[C@@H]2O[C@H](C)[C@@H](O)[C@H](N)[C@@H]2O)C[C@@H]2O[C@](O)(C[C@@H](O)C[C@@H](O)[C@H](O)CC[C@@H](O)C[C@@H](O)CC(=O)O[C@H]1C)C[C@H](O)[C@H]2C(=O)O [AMPHOTERICIN B]	2 (≈ 2.16 µM)	2 (≈ 2.16 µM)	2 (≈ 2.16 µM)	2 (≈ 2.16 µM)	2 (≈ 2.16 µM)	2 (≈ 2.16 µM)	2 (≈ 2.16 µM)	1 (≈ 1.08 µM)
OC(Cn1cncn1)(Cn1cncn1)c1ccc(F)cc1F [FLUCONAZOLE]	0.5 (≈ 1.63 µM)	0.25 (≈ 0.816 µM)	0.25 (≈ 0.816 µM)	0.25 (≈ 0.816 µM)	0.5 (≈ 1.63 µM)	0.5 (≈ 1.63 µM)	0.25 (≈ 0.816 µM)	1 (≈ 3.27 µM)
Nc1nc(=O)[nH]cc1F [FLUCYTOSINE]	0.12 (≈ 0.93 µM)	0.12 (≈ 0.93 µM)	0.12 (≈ 0.93 µM)	0.12 (≈ 0.93 µM)	0.12 (≈ 0.93 µM)	0.12 (≈ 0.93 µM)	0.12 (≈ 0.93 µM)	0.12 (≈ 0.93 µM)
